According to patent US20080226718A1, “Indole and Azaindole Derivatives For the Treatment of Inflammatory and Autoimmune Diseases” (Brane Discovery S.r.l, priority 2005, published 2008):

Legend:
[1] = tested on: NADPH-oxidase; assay: Respiratory burst (H2O2 assay), NADPH-oxidase activation in PMNs; format: cell-based; settings: PMA 200 ng/ml; 10, 50, 100 μM; FIG. 1a
Experimental: (§1) NADPH-oxidase activation was measured as induction of H2O2 release (derived from dismutation of O2^−) triggered in PMNs and monocytes by PMA (200 ng/ml). Briefly, PMNs and monocytes were pretreated at 37° C. for 30-60 min with test compound at different concentrations, and stimulated with phorbol 12-myristate 13-acetate (PMA, 200 ng/ml) dissolved in 0.5 ml of a standard reaction mixture. Release of H2O2 was evaluated in real time at time points of 5 min by using a microplate fluorescence reader (Perkin-Elmer). Results are expressed as nmoles of H2O2 released over time by 10^6 cells. Shown are dose-response curves of inhibitory effect on H2O2 release over 60 min.

[2] = tested on: NADPH-oxidase; assay: Respiratory burst (H2O2 assay), NADPH-oxidase activation in monocytes; format: cell-based; settings: PMA 200 ng/ml; 10, 50, 100 μM; FIG. 1b
Experimental: as §1

[3] = tested on: experimental autoimmune encephalomyelitis (EAE); assay: EAE, preventive model; format: in vivo
Experimental: Female SJL/J mice, 6-8 weeks of age, were obtained from Harlan-Nossan Italy. Mice were immunized s.c. with 200 μg PLP139-151 in 0.1 ml emulsion consisting of equal volumes of PBS and CFA (Difco Laboratories, Detroit, Mich.) and containing 6 mg/ml of Mycobacterium tuberculosis H37Ra (Difco). To induce a severe disease, in some experiments 400 ng Pertussis toxin (PTX) was administered i.v. at days 0 and 2 (Constantin, G. et al. Eur. J. Immunol., 28, 3523-3529, 1998). Mice were scored for EAE according to the following scale: 0, no disease; 1, tail weakness; 2, paraparesis; 3, paraplegia; 4, paraplegia with forelimb weakness or paralysis; 5, moribund or dead animals (Brocke S. et al., Autoimmune disease models. Academic Press, San Diego, 1-4, 1994).
Test compound was administered daily at 60 mg/kg i.p. for 17 days starting from the day of immunization. Control animals received vehicle (DMSO).
The effects of compound of Example 1 (PCT/EP2005/051908) were determined on EAE (experimental autoimmune encephalomyelitis), the animal model of multiple sclerosis (Tables 4 and 5). SJL mice were immunized with PLP139-151 peptide from cerebral proteolipid. The disease model has relapses and remission periods, as described in relapsing-remitting MS, the most frequent form of human disease accounting for 85% of all MS patients.
In the preventive model (Table 4), mice received 60 mg/kg daily of Compound of Example 1 (PCT/EP2005/051908), intraperitoneally, for 17 days starting from the day of immunization. Control animals received vehicle (DMSO). Control animals developed disease with a mean day of onset of 13±1.5. Mean maximum clinical score in control animals was 2.7±0.3. All control mice that developed disease also presented clinical relapses.

[4] = preventive, 60 mg/kg i.p. daily for 17 days from immunization

Which results are given for COC(=O)c1[nH]c2cc(OC)c(OC)cc2c1-c1ccc(OC)cc1 [Example 1]?
NADPH-oxidase activation (H2O2 release) in PMNs, in words [1]: inhibits NADPH-oxidase activation; NADPH-oxidase activation (H2O2 release) in monocytes, in words [2]: inhibits NADPH-oxidase activation; Visible toxicity (appearance of animals, macroscopic pathological analysis) ([3]; 60 mg/kg i.p. daily for 17 days): neither the treatment caused any visible toxicity; Development of clinical signs of disease, in words ([3]; preventive, 60 mg/kg i.p. daily for 17 days): completely blocked; Disease incidence [3, 4]: 0/6; Mortality [3, 4]: 0/6; Mean maximum clinical score ([3]; preventive, 60 mg/kg i.p. daily for 17 days from immunization, scale 0-5): 0; Clinical relapses ([3]; preventive, observation period of 61 days): no treated animals developed clinical relapses
